Consider three compounds from patent publication US7829572B2 (Pfizer Inc, priority 2006, dated 2010).

The target of the assay is T1, calcium receptor (CasR) (Homo sapiens, UniProt P41180).
T1 construct: expressed in transfected cells; host or cells: HEK 293
T1 sequence (P41180 20-1078): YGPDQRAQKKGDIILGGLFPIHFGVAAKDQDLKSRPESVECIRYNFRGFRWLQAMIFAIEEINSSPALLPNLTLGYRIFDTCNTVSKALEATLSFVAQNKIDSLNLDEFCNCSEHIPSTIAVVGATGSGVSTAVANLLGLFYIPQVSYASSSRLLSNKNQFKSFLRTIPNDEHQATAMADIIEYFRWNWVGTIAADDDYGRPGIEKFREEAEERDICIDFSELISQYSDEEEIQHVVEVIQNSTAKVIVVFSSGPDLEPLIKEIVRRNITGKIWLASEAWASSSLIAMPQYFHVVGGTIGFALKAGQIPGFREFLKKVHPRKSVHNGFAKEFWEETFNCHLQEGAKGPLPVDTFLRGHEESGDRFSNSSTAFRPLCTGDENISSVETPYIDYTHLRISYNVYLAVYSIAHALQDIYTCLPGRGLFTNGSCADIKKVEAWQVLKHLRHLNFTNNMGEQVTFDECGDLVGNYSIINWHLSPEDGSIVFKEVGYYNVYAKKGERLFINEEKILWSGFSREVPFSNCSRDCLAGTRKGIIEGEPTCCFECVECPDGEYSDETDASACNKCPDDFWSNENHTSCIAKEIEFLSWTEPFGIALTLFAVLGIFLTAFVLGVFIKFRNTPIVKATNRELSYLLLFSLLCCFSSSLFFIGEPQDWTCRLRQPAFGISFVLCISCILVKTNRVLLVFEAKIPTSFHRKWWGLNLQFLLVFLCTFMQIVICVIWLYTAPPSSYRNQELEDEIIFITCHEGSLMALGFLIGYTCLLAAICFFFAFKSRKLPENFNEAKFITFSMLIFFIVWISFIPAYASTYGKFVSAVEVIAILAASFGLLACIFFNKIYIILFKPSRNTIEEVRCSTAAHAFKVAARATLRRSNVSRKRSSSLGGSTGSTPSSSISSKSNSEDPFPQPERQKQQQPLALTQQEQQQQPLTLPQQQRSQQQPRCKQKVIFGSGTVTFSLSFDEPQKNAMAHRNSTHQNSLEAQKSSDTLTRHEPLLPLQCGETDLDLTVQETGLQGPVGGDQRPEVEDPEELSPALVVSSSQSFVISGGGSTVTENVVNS
Put plainly: FLIPR Assay for Evaluating the Potency and Selectivity of Test Compounds. The class given is cell-based. The following applies: HEK 293 cells expressing CasR; 30 minutes pre-incubation; stimulation by 1.7 mM Ca2+; read 42 seconds after stimulation. Put shortly:
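HEK293 cells expressing CasR, loaded with Fluo-4, washed in 10 mM HEPES, then preincubated 30 min with compound ([…] to 3 nM). Stimulated with 1.7 mM Ca2+ and fluorescence read at 42 s on FLIPR. IC50 from inhibition of the Ca2+-induced intracellular Ca2+ rise.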

pIC50: −log10 of the molar value.

With `O=c1c2c(C(F)(F)F)nccc2nc(-c2ccccc2C(F)(F)F)n1CCC1CCCCC1` [Example 81, 3-(2-cyclohexylethyl)-5-(trifluoromethyl)-2-(2-(trifluoromethyl)phenyl)pyrido[4,3-d]pyrimidin-], the pIC50 was 5.10. For the compound `CCCOc1nccc2nc(-c3ccccc3O)n(CCc3ccccc3)c(=O)c12` [Example 32, 2-(2-Hydroxy-phenyl)-3-phenethyl-5-propoxy-3H-pyrido[4,3-d]pyrimidin-4-one], the pIC50 is 6.24.

For the compound `CC(C)CCn1c(-c2ncccc2O)nc2ccnc(C(F)(F)F)c2c1=O` [Example 66, 2-(3-hydroxypyridin-2-yl)-3-isopentyl-5-(trifluoromethyl)pyrido[4,3-d]pyrimidin-4(3H)-one], the pIC50 is 4.44.
